# Measured values taken from patent US20230049952A1, “METHODS AND COMPOUNDS FOR RESTORING MUTANT P53 FUNCTION” (PMV Pharmaceuticals, Inc., priority 2020, published 2023).
# Test system: NF-κB signaling pathway in MT373 tumors
# Assay: MT373 syngeneic sarcoma model: mouse NF-κB signaling pathway profiling panel
# Type: in vivo
# Settings: for Ccl2 mRNA downregulation / Csf2 mRNA downregulation / Egfr mRNA downregulation / Fas1 mRNA downregulation / Ifnγ mRNA downregulation / Il1α mRNA downregulation / Il1β mRNA downregulation: 150 mg/kg BID×1
structure (smiles),measurement,setting,value
"CCn1c(C#CCNc2ccccc2)cc2cc(CNC3CCN(C)CC3)ccc21 [Compound 1, 1-Anilino-3-{1-ethyl-5-[(1-methyl-4-piperidylamino)methyl]-1H-indol-2-yl}-2-propyne]",Ccl5 fold increase over or percent reduction vs vehicle control,"150 mg/kg BIDx1, […]",2.85 ± 0.20 fold or %
same,Cd27 fold increase over or percent reduction vs vehicle control,"150 mg/kg BIDx1, […]",1.48 ± 0.16 fold or %
same,Cd40 fold increase over or percent reduction vs vehicle control,"150 mg/kg BIDx1, […]",1.78 ± 0.80 fold or %
same,Cflar fold increase over or percent reduction vs vehicle control,"150 mg/kg BIDx1, […]",6.22 ± 11.55 fold or %
same,Chuk fold increase over or percent reduction vs vehicle control,"150 mg/kg BIDx1, […]",1.16 ± 0.33 fold or %
same,Crebbp fold increase over or percent reduction vs vehicle control,"150 mg/kg BIDx1, […]",16.61 ± 5.43 fold or %
same,Csf1 fold increase over or percent reduction vs vehicle control,"150 mg/kg BIDx1, […]",1.10 ± 0.10 fold or %
same,Csf2 fold increase over or percent reduction vs vehicle control,"150 mg/kg BIDx1, […]",2.00 ± 1.31 fold or %
same,Csf3 fold increase over or percent reduction vs vehicle control,"150 mg/kg BIDx1, […]",52.98 ± 22.53 fold or %
same,Egfr fold increase over or percent reduction vs vehicle control,"150 mg/kg BIDx1, […]",41.90 ± 8.16 fold or %
same,Egr1 fold increase over or percent reduction vs vehicle control,"150 mg/kg BIDx1, […]",54.35 ± 3.91 fold or %
same,Eif2ak2 fold increase over or percent reduction vs vehicle control,"150 mg/kg BIDx1, […]",18.72 ± 7.21 fold or %
same,Elk1 fold increase over or percent reduction vs vehicle control,"150 mg/kg BIDx1, […]",7.14 ± 8.40 fold or %
same,F2r fold increase over or percent reduction vs vehicle control,"150 mg/kg BIDx1, […]",1.01 ± 0.12 fold or %
same,Fadd fold increase over or percent reduction vs vehicle control,"150 mg/kg BIDx1, […]",5.68 ± 5.62 fold or %
same,Fasl fold increase over or percent reduction vs vehicle control,"150 mg/kg BIDx1, […]",3.17 ± 0.74 fold or %
same,Fos fold increase over or percent reduction vs vehicle control,"150 mg/kg BIDx1, […]",44.44 ± 21.93 fold or %
same,Hmox1 fold increase over or percent reduction vs vehicle control,"150 mg/kg BIDx1, […]",40.88 ± 33.56 fold or %
same,Icam1 fold increase over or percent reduction vs vehicle control,"150 mg/kg BIDx1, […]",1.41 ± 0.25 fold or %
same,Ifng fold increase over or percent reduction vs vehicle control,"150 mg/kg BIDx1, […]",3.22 ± 0.99 fold or %
same,Ikbkb fold increase over or percent reduction vs vehicle control,"150 mg/kg BIDx1, […]",6.97 ± 8.47 fold or %
same,Ikbke fold increase over or percent reduction vs vehicle control,"150 mg/kg BIDx1, […]",0.36 ± 10.26 fold or %
same,Ikbkg fold increase over or percent reduction vs vehicle control,"150 mg/kg BIDx1, […]",9.50 ± 15.53 fold or %
same,Il1a fold increase over or percent reduction vs vehicle control,"150 mg/kg BIDx1, […]",1.02 ± 0.18 fold or %
same,Il1b fold increase over or percent reduction vs vehicle control,"150 mg/kg BIDx1, […]",1.39 ± 0.34 fold or %
same,Il1r1 fold increase over or percent reduction vs vehicle control,"150 mg/kg BIDx1, […]",28.14 ± 8.59 fold or %
same,Il10 fold increase over or percent reduction vs vehicle control,"150 mg/kg BIDx1, […]",34.39 ± 10.47 fold or %
same,Irak1 fold increase over or percent reduction vs vehicle control,"150 mg/kg BIDx1, […]",5.30 ± 10.81 fold or %
same,Irak2 fold increase over or percent reduction vs vehicle control,"150 mg/kg BIDx1, […]",1.05 ± 0.12 fold or %
same,Irf1 fold increase over or percent reduction vs vehicle control,"150 mg/kg BIDx1, […]",1.11 ± 0.14 fold or %
same,Jun fold increase over or percent reduction vs vehicle control,"150 mg/kg BIDx1, […]",26.73 ± 6.02 fold or %
same,Lta fold increase over or percent reduction vs vehicle control,"150 mg/kg BIDx1, […]",1.87 ± 0.82 fold or %
same,Ltbr fold increase over or percent reduction vs vehicle control,"150 mg/kg BIDx1, […]",1.13 ± 0.10 fold or %
same,Map3k1 fold increase over or percent reduction vs vehicle control,"150 mg/kg BIDx1, […]",16.75 ± 8.45 fold or %
same,Mapk3 fold increase over or percent reduction vs vehicle control,"150 mg/kg BIDx1, […]",19.93 ± 6.52 fold or %
same,Myd88 fold increase over or percent reduction vs vehicle control,"150 mg/kg BIDx1, […]",9.52 ± 8.80 fold or %
same,Nfkb1 fold increase over or percent reduction vs vehicle control,"150 mg/kg BIDx1, […]",5.72 ± 2.88 fold or %
same,Nfkb2 fold increase over or percent reduction vs vehicle control,"150 mg/kg BIDx1, […]",1.01 ± 0.10 fold or %
same,Nfkbia fold increase over or percent reduction vs vehicle control,"150 mg/kg BIDx1, […]",8.21 ± 16.85 fold or %
same,Nod1 fold increase over or percent reduction vs vehicle control,"150 mg/kg BIDx1, […]",0.36 ± 14.65 fold or %
same,Raf1 fold increase over or percent reduction vs vehicle control,"150 mg/kg BIDx1, […]",7.66 ± 4.64 fold or %
same,Rel fold increase over or percent reduction vs vehicle control,"150 mg/kg BIDx1, […]",4.74 ± 2.26 fold or %
same,Rela fold increase over or percent reduction vs vehicle control,"150 mg/kg BIDx1, […]",20.75 ± 9.37 fold or %
same,Relb fold increase over or percent reduction vs vehicle control,"150 mg/kg BIDx1, […]",14.05 ± 6.91 fold or %
same,Ripk1 fold increase over or percent reduction vs vehicle control,"150 mg/kg BIDx1, […]",2.92 ± 15.10 fold or %
same,Ripk2 fold increase over or percent reduction vs vehicle control,"150 mg/kg BIDx1, […]",1.11 ± 0.29 fold or %
same,Slc20a1 fold increase over or percent reduction vs vehicle control,"150 mg/kg BIDx1, […]",20.53 ± 3.61 fold or %
same,Smad3 fold increase over or percent reduction vs vehicle control,"150 mg/kg BIDx1, […]",0.01 ± 11.30 fold or %
same,Stat1 fold increase over or percent reduction vs vehicle control,"150 mg/kg BIDx1, […]",1.20 ± 0.33 fold or %
same,Tbk1 fold increase over or percent reduction vs vehicle control,"150 mg/kg BIDx1, […]",1.03 ± 0.18 fold or %
same,Tlr1 fold increase over or percent reduction vs vehicle control,"150 mg/kg BIDx1, […]",1.33 ± 0.37 fold or %
same,Tlr2 fold increase over or percent reduction vs vehicle control,"150 mg/kg BIDx1, […]",1.05 ± 0.08 fold or %
same,Tlr3 fold increase over or percent reduction vs vehicle control,"150 mg/kg BIDx1, […]",1.02 ± 0.15 fold or %
same,Tlr4 fold increase over or percent reduction vs vehicle control,"150 mg/kg BIDx1, […]",1.04 ± 0.09 fold or %
same,Tlr6 fold increase over or percent reduction vs vehicle control,"150 mg/kg BIDx1, […]",0.43 ± 6.189 fold or %
same,Tlr9 fold increase over or percent reduction vs vehicle control,"150 mg/kg BIDx1, […]",1.29 ± 0.19 fold or %
same,Tnf fold increase over or percent reduction vs vehicle control,"150 mg/kg BIDx1, […]",1.12 ± 0.27 fold or %
same,Tnfaip3 fold increase over or percent reduction vs vehicle control,"150 mg/kg BIDx1, […]",11.08 ± 10.07 fold or %
same,Tnfrsf1a fold increase over or percent reduction vs vehicle control,"150 mg/kg BIDx1, […]",17.69 ± 12.43 fold or %
same,Tnfrsf1b fold increase over or percent reduction vs vehicle control,"150 mg/kg BIDx1, […]",1.08 ± 0.19 fold or %
same,Tnfrsf10b fold increase over or percent reduction vs vehicle control,"150 mg/kg BIDx1, […]",1.19 ± 15.33 fold or %
same,Tnfsf10 fold increase over or percent reduction vs vehicle control,"150 mg/kg BIDx1, […]",1.18 ± 0.41 fold or %
same,Tnfsf14 fold increase over or percent reduction vs vehicle control,"150 mg/kg BIDx1, […]",1.09 ± 0.34 fold or %
same,Tollip fold increase over or percent reduction vs vehicle control,"150 mg/kg BIDx1, […]",13.73 ± 7.04 fold or %
same,Tradd fold increase over or percent reduction vs vehicle control,"150 mg/kg BIDx1, […]",1.02 ± 0.22 fold or %
same,Traf2 fold increase over or percent reduction vs vehicle control,"150 mg/kg BIDx1, […]",1.01 ± 0.11 fold or %
same,Traf3 fold increase over or percent reduction vs vehicle control,"150 mg/kg BIDx1, […]",17.66 ± 4.06 fold or %
same,Traf5 fold increase over or percent reduction vs vehicle control,"150 mg/kg BIDx1, […]",1.10 ± 0.12 fold or %
same,Traf6 fold increase over or percent reduction vs vehicle control,"150 mg/kg BIDx1, […]",12.35 ± 5.34 fold or %
same,Zap70 fold increase over or percent reduction vs vehicle control,"150 mg/kg BIDx1, […]",2.40 ± 0.39 fold or %
same,Ccl2 mRNA downregulation,24 h,57.69%
same,Csf2 mRNA downregulation,24 h,61.29%
same,Egfr mRNA downregulation,24 h,28.45%
same,Fas1 mRNA downregulation,24 h,31.85%
same,Ifnγ mRNA downregulation,24 h,35.82%
same,Il1α mRNA downregulation,24 h,13.50%
same,Il1β mRNA downregulation,24 h,63.25%
same,Ccl2 mRNA downregulation,48 h,67.28%
same,Csf2 mRNA downregulation,48 h,62.24%
same,Egfr mRNA downregulation,48 h,24.42%
same,Ifnγ mRNA downregulation,48 h,43.46%
same,Il1α mRNA downregulation,48 h,28.88%
same,Il1β mRNA downregulation,48 h,18.73%
same,Ccl2 mRNA downregulation,72 h,52.53%
same,Fas1 mRNA downregulation,72 h,42.85%
same,Ifnγ mRNA downregulation,72 h,22.04%
same,Il1α mRNA downregulation,72 h,63.60%
same,Il1β mRNA downregulation,72 h,84.09%
same,Egfr mRNA downregulation,[…],41.90%
